Here are results for one compound from article PMC10076643, “Design, synthesis and anticancer activity studies of 3-(coumarin-3-yl)-acrolein derivatives: Evidenced by integrating network pharmacology and vitro assay” (Frontiers in Pharmacology, 2023).

Assay [1] deals with AKT phosphorylation in KB cells. As to the kind of experiment: Western blot, pAKT/AKT. Type of assay: cell-based, human. As to conditions: increased concentration (0.40, 0.80, 1.60 μM), 24 h. An excerpt:
(§1) Based on the results of network pharmacology, the key proteins related to PI3K/AKT pathway were detected by Western blotting to explore the antitumor mechanism of compound 6e. […] Such an inconsistency might be due to a compensatory increase in PI3K level after the reduction of AKT phosphorylation level. Additionally, the active-caspase 3 protein, anti-apoptosis protein Bcl-2 and pro-apoptosis protein Bax were further analyzed. Caspase-3 normally exists in the cytoplasm as zymogen. During the early stage of apoptosis, caspase-3 (32 KD) is cleaved to the active 17-kD caspase-3 fragment, which is responsible for morphological and biochemical changes in apoptosis. Bcl-2 and Bax are the […] located on the mitochondrial membrane and capable of controlling the MMP (ΔΨm) and the activation of caspase cascade.
(§2) A total of 4 × 10^5 KB cells were seeded into 6-well and grown for overnight. Then the cells adherent to the wall were treated with compound 6e in different concentrations (0, 0.40, 0.80, 1.60 μM) for 24 h. After that, cells were collected, SDS lysate, 100X protease inhibitor and 50X phosphorylation inhibitor were added in a certain proportion to lyse the cells. The protein content was determined by BCA reagent (Beyotime, China) according to the standard curve. […]
Background: Immunoblotting shows a protein as a band on a membrane.

Another assay deals with KB cells. Briefly: Annexin V-FITC/PI dual staining apoptosis assay (flow cytometry). Type of assay: cell-based, human. The protocol: To investigate whether compound 6e could induce cell apoptosis, KB cells were treated with compound 6e in different concentrations for 48 h and the Annexin V-FITC/PI dual staining assay was carried out flow cytometry.
KB cells (5×10^5 cells/well) were seeded into six-well plates. […] Afterwards, cells were collected, washed twice with cold PBS. Then the treated cells were resuspended with 400 μL of 1X Annexin V binding buffer and mixed with 5 μL FITC and 5 μL PI (Annexin V-FITC Apoptosis Analysis Kit, Tianjing), and incubated at room temperature in the dark for 5 min. After the incubation, the samples were immediately analyzed by a Beckman Flow Cytometer.
(In flow cytometry, cells or beads pass a laser one at a time.)

The subject of a further assay is Bcl-2 in KB cells. Briefly: Western blot, Bcl-2. It counts as cell-based, human. The conditions noted are these: 0.40 μM, 24 h.
Source text: as §1, §2

The test system of assay [2] is LO2 (human normal hepatocytes). As to the kind of experiment: MTT antiproliferative assay, LO2 normal cells. Type of assay: cell-based. As to conditions: Hepatocyte, 72 h. An excerpt: All the synthesized compounds were screened for in vitro antiproliferative activity against four human cancer cell lines A549 (human lung cancer cell line), KB (human oral epidermoid carcinoma cell line), Hela (human cervical carcinoma cell line), MCF-7 (human breast cancer cell line) and two human normal cell lines HUVEC (human umbilical vein endothelial cell) and LO2 (human normal hepatocytes) through the 3-(4,5-dimethyl-2-thiazolyl)-2,5-diphenyl-2-H-tetrazolium bromide (MTT) assay.
Non-small-cell lung cancer (A549), oral epidermoid carcinoma (KB), cervical cancer (Hela) and breast cancer (MCF-7) cells were purchased from the American Type Culture Collection (ATCC, America). Human umbilical vein endothelial cell (HUVEC) and human normal hepatocytes (LO2) cells were provided by Guangzhou Medical University (Guangzhou, China). A549 and KB cells were cultured in RMPI-1640 medium (Gibco, America). Hela, MCF-7 and LO2 cells were cultured in DMEM medium (Gibco, America). HUVEC cells were cultured in Ham’s F-12K medium (Gibco, America). All the mediums were supplemented with 10% fetal bovine serum (FBS) (BI, State of Israel), 100 U/mL penicillin and 100 μg/mL streptomycin (Gibco, America), and all the cells were incubated in a sterile incubator at 37°C in an environment of 5% CO2. The tested compounds were dissolved in dimethyl sulfoxide (DMSO) at a concentration of 10 mM, and then diluted into different concentration of solutions by culture medium. The final concentration of DMSO was <0.01% (v/v) in all drug treatment groups to avoid the toxicity in the biological system. Untreated cells were used as a blank control and 5-fluorouracil treated cells were used as a positive control.
The incubated tumor cells were planted into 96-well plates (4×10^3 cells/well). After 24 h, the cells were adherent to the wall and treated with the compound 6e in different concentrations (0.78, 1.56, 3.12, 6.25, 12.50, 25.00, and 50.00 μM) for 72 h. Afterwards, the medium was supplemented with 10 µL MTT solution. After 4 h, the culture medium was removed and 100 µL DMSO was added. The absorbance was determined at the wavelength of 540 nm and 655 nm using a microplate reader (BioTek Epoch, America). The results were collected from three independent experiments. The IC50 was then calculated by using GraphPad Prism Software (version 7.0) and non-linear regression (curve fit).
In general terms: Tetrazolium dyes change colour on reduction, which living cells bring about.

The structures appear in SMILES notation.

`O=CC=C(Cl)c1cc2ccc(OCc3ccccc3)cc2oc1=O` [Compound 6e, 3-(7-(Benzyloxy)-2-oxo-2H-chromen-3-yl)-3-chloroacrylaldehyde]: the pAKT/AKT ratios result in assay [1] is “remarkably decreased”. Moreover, in the assay on KB cells (0.5 IC50, 48 h), the “apoptotic rate in the early stage (Q1-LR)” value (“apoptotic rate … (Q1-LR)” for short) stood at 6.99%, the “late apoptotic rate (Q1-UR)” value stood at 5.55% and the total apoptosis rate is 12.54%. In the assay on KB cells (2 IC50, 48 h), the “apoptotic rate … (Q1-LR)” value is recorded as 13.11%, the “late apoptotic rate (Q1-UR)” value was found to be 7.22% and the total apoptosis rate amounted to 20.33%. In the assay on KB cells (IC50, 48 h), the “apoptotic rate … (Q1-LR)” value amounted to 6.69%, the “late apoptotic rate (Q1-UR)” value amounted to 7.30% and the total apoptosis rate is given as 13.99%. Also, in the assay with Bcl-2 in KB cells, the “expression of Bcl-2 compared with the control group” value is “visibly decreased” and the “proportion of Bcl-2 to Bax” value is given as “decrease”. The compound further displayed an IC50 in assay [2] of 50.13 ± 0.03 µM.

A word on the IC50: it is the midpoint of a concentration-inhibition curve.
